Experimental data published in patent publication US20160304957A1, “TREATMENT AND MODULATION OF GENE EXPRESSION AND SKIN AGING” (DSM NUTRITIONAL PRODUCTS LTD., priority 2006, published 2016).

How the values were obtained:
Test in all cases: QRT-PCR gene expression in HaCaT cells with or without UVA
Type in all cases: cell-based, human
[1] = tested on: β-carotene-9′,10′-oxygenase
Description: (§1) HaCaT cells were obtained from Prof. Fusenig, German Cancer Research Centre, Heidelberg. […] The accuracy of cell counting was approximately 99%.
(§2) On day 3 of the experiment, cells were washed six times with Ca/Mg-free PBS containing 2% BSA, and then irradiated with light with a Hönle sun lamp Sol 500 (Dr. Hönle, Plannegg, Germany) at a dose of 270 kJ/m^2 in Ca/Mg-free PBS (2 hour exposure time at […]). The experimental schedule was chosen because the cells had optimal UVA sensitivity after 48 hours in culture. […] Confluent cultures were much less sensitive to irradiation.
(§3) After irradiation, the cells were supplied with fresh β-carotene-containing serum-free medium and kept in the incubator at 37° C., 5% CO2 until harvest of the samples. In experiments in which the half-life of ^1O2 was prolonged by D2O to enhance its effect, PBS was prepared in D2O, instead of in H2O, as it was done for the standard conditions described above. Cells were washed twice in D2O-PBS prior to irradiation in D2O-PBS. After irradiation, cells were maintained with fresh β-carotene-containing serum-free medium. Sham controls were treated in an identical manner, by placing them under the solar simulator but shielded from light.
(§4) Total RNA was isolated by using Trizol™ (Invitrogen, Basel, Switzerland) according to the instructions of the manufacturer. Random-primed cDNA was synthesized using the Superscript pre-amplification system for first strand cDNA synthesis (Invitrogen).
(§5) cDNA corresponding to 10 ng total RNA was used as template to quantify the relative RNA expression of the genes of interest by TaqMan® real time PCR.
(§6) The PCR analyses were carried out in triplicate and in a multiplex setup, using 18S rRNA as a calibrator gene. The rRNA primers were used at a final concentration of 50 nM, the probe at 100 nM. For quantification of the genes of interest, the primer concentrations were optimized for sensitivity of template detection. […] PCR reactions were carried out for 40 cycles of 95° C. for 15 seconds and 60° C. for 1 minute in an ABI7700 (Applied Biosystems, Rotkreuz, Switzerland). Regulation of gene expression was calculated as described in user bulletin #2 provided by the manufacturer. A threshold cycle (“CT”) is the first PCR cycle in which an amplification signal is detected. Expression levels are given as δCT values. The δCT value describes the level of gene expression as the average PCR cycle, in which the gene of interest was detected first (CT value), subtracted by the CT value of the calibrator gene 18S rRNA (CTgene of interest−CTcalibrating gene), 18S rRNA served as a measure for the amount of template in the reaction. Routinely, 18S rRNA was detected between PCR cycle 12 and 13 (SE=standard error) A low δCT corresponds to a high mRNA level.
(§7) HaCaT cells were pretreated for 2 days with 0.5, 1.5 or 3 μM β-carotene. The cells were irradiated with UVA (270 kJ/m^2) either in D2O-containing PBS or in H2O-containing PBS, to analyze ^1O2 inducibility of genes. Gene expression 5 hours after UVA irradiation was analyzed by QRT-PCR. Values are geometric means±standard error from three independent experiments. Upregulations greater than 1.5-fold are labelled in bold black, downregulations below 0.66-fold are bold grey.

RARγ = tested on: RARγ
Description: as §1, §2, §3, §4, §5, §6, §7

RARβ = tested on: RARβ
Description: as §1, §2, §3, §4, §5, §6, §7

RXRγ = tested on: RXRγ
Description: as §1, §2, §3, §4, §5, §6, §7

RXRβ = tested on: RXRβ
Description: as §1, §2, §3, §4, §5, §6, §7

[2] = tested on: β-Carotene-15,15′-oxygenase
Description: as §1, §2, §3, §4, §5, §6, §7

[3] = β-carotene, UVA, D2O treatments

CC1=C(/C=C/C(C)=C/C=C/C(C)=C/C=C/C=C(C)/C=C/C=C(C)/C=C/C2=C(C)CCCC2(C)C)C(C)(C)CCC1 [β-carotene, All-E-β-carotene] was tested, and the “βC-9′,10′-oxygenase fold induction” value ([1]; D2O, UVA/βC 0.5 μM) was 1.43 fold, the “βC-9′,10′-oxygenase fold induction” value ([1]; D2O, UVA/βC 1.5 μM) was 2.30 fold and the “βC-9′,10′-oxygenase fold induction” value ([1]; D2O, UVA/βC 3 μM) was 2.19 fold. The “βC-9′,10′-oxygenase fold induction” value ([1]; D2O, βC 0.5 μM) was 0.93 fold, the “βC-9′,10′-oxygenase fold induction” value ([1]; D2O, βC 1.5 μM) was 1.19 fold and the “βC-9′,10′-oxygenase fold induction” value ([1]; D2O, βC 3 μM) was 1.11 fold. For the same molecule, the “βC-9′,10′-oxygenase fold induction” value ([1]; H2O, UVA/βC 0.5 μM) was 0.75 fold, the “βC-9′,10′-oxygenase fold induction” value ([1]; H2O, UVA/βC 1.5 μM) was 0.70 fold and the “βC-9′,10′-oxygenase fold induction” value ([1]; H2O, UVA/βC 3 μM) was 0.99 fold. The “βC-9′,10′-oxygenase fold induction” value ([1]; H2O, βC 0.5 μM) was 0.90 fold, the “βC-9′,10′-oxygenase fold induction” value ([1]; H2O, βC 1.5 μM) was 0.85 fold and the “βC-9′,10′-oxygenase fold induction” value ([1]; H2O, βC 3 μM) was 0.76 fold. The “β-carotene-9′,10′-oxygenase RNA level” value [1, 3] was “not significantly influenced”, the “basal or UVA-regulated expression level of RARγ” value (RARγ) was “no significant effect” and the RARγ fold induction (RARγ; D2O, UVA/βC 0.5 μM) was 0.63 fold. For the same molecule, the RARγ fold induction (RARγ; D2O, UVA/βC 1.5 μM) was 0.67 fold, the RARγ fold induction (RARγ; D2O, UVA/βC 3 μM) was 0.76 fold and the RARγ fold induction (RARγ; D2O, βC 0.5 μM) was 0.94 fold. The RARγ fold induction (RARγ; D2O, βC 1.5 μM) was 1.11 fold, the RARγ fold induction (RARγ; D2O, βC 3 μM) was 1.12 fold and the RARγ fold induction (RARγ; H2O, UVA/βC 0.5 μM) was 0.85 fold. It also gave an RARγ fold induction (RARγ; H2O, UVA/βC 1.5 μM) of 0.15 fold, an RARγ fold induction (RARγ; H2O, UVA/βC 3 μM) of 0.54 fold and an RARγ fold induction (RARγ; H2O, βC 0.5 μM) of 0.74 fold. The RARγ fold induction (RARγ; H2O, βC 1.5 μM) was 0.86 fold, the RARγ fold induction (RARγ; H2O, βC 3 μM) was 0.90 fold and the “basal or UVA-regulated expression level of RARβ” value (RARβ) was “no significant effect”. For the same molecule, the RARβ fold induction (RARβ; D2O, UVA/βC 0.5 μM) was 2.49 fold, the RARβ fold induction (RARβ; D2O, UVA/βC 1.5 μM) was 1.69 fold and the RARβ fold induction (RARβ; D2O, UVA/βC 3 μM) was 2.35 fold. The RARβ fold induction (RARβ; D2O, βC 0.5 μM) was 1.25 fold, the RARβ fold induction (RARβ; D2O, βC 1.5 μM) was 2.46 fold and the RARβ fold induction (RARβ; D2O, βC 3 μM) was 2.79 fold. It also gave an RARβ fold induction (RARβ; H2O, UVA/βC 0.5 μM) of 0.44 fold, an RARβ fold induction (RARβ; H2O, UVA/βC 1.5 μM) of 0.90 fold and an RARβ fold induction (RARβ; H2O, UVA/βC 3 μM) of 0.86 fold. For the same molecule, the RARβ fold induction (RARβ; H2O, βC 0.5 μM) was 0.81 fold, the RARβ fold induction (RARβ; H2O, βC 1.5 μM) was 1.20 fold and the RARβ fold induction (RARβ; H2O, βC 3 μM) was 1.84 fold. For the same molecule, the “RARβ induction, dose-dependent” value (RARβ; predominantly in unirradiated cells) was “non-significantly induced”, the “basal or UVA-regulated expression level of RXRγ” value (RXRγ) was “no significant effect” and the RXRγ fold induction (RXRγ; D2O, UVA/βC 0.5 μM) was 1.72 fold. For the same molecule, the RXRγ fold induction (RXRγ; D2O, UVA/βC 1.5 μM) was 2.70 fold, the RXRγ fold induction (RXRγ; D2O, UVA/βC 3 μM) was 1.57 fold and the RXRγ fold induction (RXRγ; D2O, βC 0.5 μM) was 1.47 fold. It also gave an RXRγ fold induction (RXRγ; D2O, βC 1.5 μM) of 2.78 fold, an RXRγ fold induction (RXRγ; D2O, βC 3 μM) of 2.57 fold and an RXRγ fold induction (RXRγ; H2O, UVA/βC 0.5 μM) of 0.61 fold. It also gave an RXRγ fold induction (RXRγ; H2O, UVA/βC 1.5 μM) of 0.08 fold, an RXRγ fold induction (RXRγ; H2O, UVA/βC 3 μM) of 0.67 fold and an RXRγ fold induction (RXRγ; H2O, βC 0.5 μM) of 0.39 fold. The RXRγ fold induction (RXRγ; H2O, βC 1.5 μM) was 0.77 fold, the RXRγ fold induction (RXRγ; H2O, βC 3 μM) was 0.33 fold and the “basal or UVA-regulated expression level of RXRβ” value (RXRβ) was “no significant effect”. The RXRβ fold induction (RXRβ; D2O, UVA/βC 0.5 μM) was 1.23 fold, the RXRβ fold induction (RXRβ; D2O, UVA/βC 1.5 μM) was 1.09 fold and the RXRβ fold induction (RXRβ; D2O, UVA/βC 3 μM) was 0.76 fold. It also gave an RXRβ fold induction (RXRβ; D2O, βC 0.5 μM) of 1.32 fold, an RXRβ fold induction (RXRβ; D2O, βC 1.5 μM) of 1.17 fold and an RXRβ fold induction (RXRβ; D2O, βC 3 μM) of 1.61 fold. It also gave an RXRβ fold induction (RXRβ; H2O, UVA/βC 0.5 μM) of 0.93 fold, an RXRβ fold induction (RXRβ; H2O, UVA/βC 1.5 μM) of 0.71 fold and an RXRβ fold induction (RXRβ; H2O, UVA/βC 3 μM) of 1.04 fold. It also gave an RXRβ fold induction (RXRβ; H2O, βC 0.5 μM) of 0.67 fold, an RXRβ fold induction (RXRβ; H2O, βC 1.5 μM) of 0.99 fold and an RXRβ fold induction (RXRβ; H2O, βC 3 μM) of 0.99 fold. For the same molecule, the “βC-15,15′-oxygenase fold induction” value ([2]; D2O, UVA/βC 0.5 μM) was 1.08 fold, the “βC-15,15′-oxygenase fold induction” value ([2]; D2O, UVA/βC 1.5 μM) was 0.90 fold and the “βC-15,15′-oxygenase fold induction” value ([2]; D2O, UVA/βC 3 μM) was 0.91 fold. For the same molecule, the “βC-15,15′-oxygenase fold induction” value ([2]; D2O, βC 0.5 μM) was 1.19 fold, the “βC-15,15′-oxygenase fold induction” value ([2]; D2O, βC 1.5 μM) was 1.03 fold and the “βC-15,15′-oxygenase fold induction” value ([2]; D2O, βC 3 μM) was 0.43 fold. The “βC-15,15′-oxygenase fold induction” value ([2]; H2O, UVA/βC 0.5 μM) was 0.60 fold, the “βC-15,15′-oxygenase fold induction” value ([2]; H2O, UVA/βC 1.5 μM) was 0.84 fold and the “βC-15,15′-oxygenase fold induction” value ([2]; H2O, UVA/βC 3 μM) was 0.91 fold. For the same molecule, the “βC-15,15′-oxygenase fold induction” value ([2]; H2O, βC 0.5 μM) was 1.09 fold, the “βC-15,15′-oxygenase fold induction” value ([2]; H2O, βC 1.5 μM) was 1.19 fold and the “βC-15,15′-oxygenase fold induction” value ([2]; H2O, βC 3 μM) was 1.08 fold. For the same molecule, the “β-Carotene-15,15′-oxygenase RNA level” value [2, 3] was “not significantly influenced”.
